“Also recorded” adds a separate entry of the source.

Data on 3 compounds can be found in publication PMC10257291, “Biological activities of extracts and compounds from Thai Kae-Lae (Maclura cochinchinensis (Lour.) Corner)” (BMC Complementary Medicine and Therapies, 2023).

The nature of assay [1]: FRAP assay. Particulars: compared in words. How it is done: Briefly, sample (20 μL) was mixed with FRAP solution (180 μL). The combined mixture was incubated at room temperature (25 °C) in the dark for 5 min before assessing the UV absorbance was measured at 595 nm with a microplate reader (Beckman CoulterDTX880, Fullerton, CA, USA). The findings were described as equivalent concentration (EC1). L-ascorbic acid served as a positive control. All experiments were conducted in triplicate.

A short description of assay [2]: DPPH assay. Particulars: compared in words. As for the experimental part:
The DPPH^• scavenging activity of crude fractional extracts and their biological active compounds were investigated using DPPH assay. Briefly, the sample (20 μL) was mixed with 167 μM DPPH solution (180 μL). The combined mixture was incubated at room temperature (25 °C) in the dark for 30 min before assessing the UV absorbance at 520 nm with a microplate reader (Beckman CoulterDTX880, Fullerton, CA, USA). The DPPH^• scavenging activity was presented in terms of the percentage of inhibition that was calculated using the following equation: 2 %DPPH^·inhibition=A-B/A×100 A is the UV absorbance of the mixture in the absence of a sample solution, and B is the UV absorbance of the mixture in the […] of a sample solution. L-ascorbic acid served as a positive control. All experiments were conducted in triplicate.
On the technique in general: The DPPH test is a chemical assay of radical scavenging.

Assay [3] relates to MCF-7 cells. The experiment in a line: Cell migration assay (wound healing scratch). In kind it is cell-based, human. Particulars: non-toxic dose, after 24 h of wounding. How it is done: Inhibitory effect of the extracts on cell migration of MCF-7 cells was assessed by wound healing scratch assays. First, cells were plated into 24-well plates and incubated in a CO2 incubator with humidified atmosphere of 5% CO2. After reaching the confluent monolayer forms, a longitudinal wound was created by scratching using SPLTM Scar Scratcher. Then, the non-toxic dose of each extract in complete DMEM medium was added into each well and cell migration was monitored and observed under Leica DM IL LED inverted microscopy and the images of cell-free area were captured at 0, 6, 12, and 24 h after wounding, then measured using ImageJ software. The percentage of wound width was calculated by the following formula:6 Woundwidth(%)=(Cell-[…] Where “Cell-free […]” is the cell-free area at any time point of imaging while “Cell-free area0.h” is the cell-free area at the beginning of wounding.

A short description of assay [4]: ABTS assay. Particulars: compared in words. As for the experimental part: Briefly, the sample (20 μL) was mixed with of the ABTS^•^+ solution (180 μL) that had been prepared overnight. The combined mixture was incubated at room temperature (25 °C) for 5 min before assessing the UV absorbance at 750 nm with a microplate reader (Spectrostar Nano, BMG Labtech GmbH, Ortenberg, Germany). The findings were described as Trolox equivalent antioxidant capacity (TEAC). All experiments were conducted in triplicate.

For assay [5], the system named is WT1 protein. The experiment in a line: WT1 protein expression by Western blot in KG-1a cells. It is filed as cell-based, human. Particulars: IC20 value, 48 h, vs vehicle control. How it is done: (§1) Leukaemic stem cells (KG-1a) and leukaemic cells (EoL-1 and K562) were used as cell models which overexpressed WT1 protein expression. Cells were treated with crude fractional extracts and active compounds at a 20% growth inhibition (IC20 value) of each extract. Following 48-h of incubation, cells were washed. The whole protein was extracted using RIPA buffer. The protein concentration was determined by the Pierce™ BCA Protein Assay Kit (ThermoFisher Scientific, IL, USA). Extracted protein sample at 30 − 50 μg was loaded to 12% SDS-PAGE and then transferred to PVDF membranes. The method was done as previously described. The specific protein bands were determined by Luminata™ Forte Western HRP substrate (Merck, Darmstadt, Germany) and exposed to X-ray film (Sakura, Japan). Quantity One 1-D Analysis software (Bio-Rad, USA) was used to quantify densitometry. The density values of WT1 bands were normalized to GAPDH bands.
In general terms: In western blotting, separated proteins are transferred to a membrane and probed.

The subject of assay [6] is EoL-1 cells. The assay can be described thus: Total cell number by trypan blue exclusion, EoL-1 cells. The conditions noted are these: IC20 value, 48 h, vs vehicle control. It is filed as cell-based, human. As for the experimental part:
(§2) According to the principle of trypan blue exclusion, viable cells with intact membranes can exclude trypan blue dye, while dead cells with compromised membranes are stained by the trypan blue dye solution. A cell suspension and trypan blue dye solution (0.2%) were mixed, and viable and dead cells were counted under microscope using a hemacytometer. Then, the percentage of viable cells was calculated. KG-1a, EoL-1 and K562 cells were cultured with crude fractional extracts and active pure compounds at various concentrations (10 − 20% growth inhibition; IC10 − IC20 values) of each extract for 48 h, at a 20% growth inhibition (IC20 value) of each extract for 24 and 48 h. Following incubation, cells were harvested, and the total cell number was counted using trypan blue exclusion method. Three independent experiments were plotted as a dose–response curve and compared with the vehicle control. Meanwhile, the total cell number of each cell line after fractional extract and pure compound treatments at 24 and 48 h were calculated and plotted as a time-response curve. Slopes from each graph were considered as the rate of cell proliferation.

For assay [7], the system named is KG-1a cells. The assay can be described thus: Rate of proliferation, KG-1a cells. The conditions noted are these: for decrease of rate of proliferation, KG-1a cells: IC20 value, 24 and 48 h (time-response), vs control; for rate of cell proliferation, KG-1a cells (in words): concentrations IC10 − IC20 values, 48 h. In kind it is cell-based, human. As for the experimental part: as §2

Assay [8] has as its system NO. The assay can be described thus: Nitric oxide measurement in LPS-stimulated RAW 264.7 cells. In kind it is cell-based, mouse. Particulars: sample at IC20 value; vs dexamethasone; LPS 1 μg/mL.
Method: Mouse monocyte macrophage RAW 264.7 cells (American Type Culture Collection, ATCCTIB-71) were stimulated with lipopolysaccharide (LPS) or phytohemagglutinin (PHA). The LPS treated RAW 264.7 cells served as a vehicle control, of which the NO production, and the secreted cytokines were defined as 100%, whereas a negative control was non-treated RAW 264.7 cells. Dexamethasone (an anti-inflammatory drug) was used as a positive control.
Briefly, 1 × 10^5 cells/well in DMEM were seeded and incubated for 24 h in a CO2 incubator set at 37 °C and 5% CO2/95% humidified air. Then cells were treated with Kae-Lae extracts or purified compounds. Following 2-h of incubation in a CO2 incubator, LPS was added to make a final concentration of 1 μg/mL. After 24 h in a CO2 incubator, the media were removed and centrifuged at 13,500 × g for 10 min. The supernatant was analysed for the level of NO using Total Nitric Oxide Assay kit, according to the manufacturer’s protocol (Invitrogen™, ThermoFisher Scientific, MA, USA). The optical density was measured at 540 nm using a multimode detector (Beckman CoulterDTX880, Fullerton, CA, USA).
NO inhibitions were calculated using the following equation:
3 %NOinhibition=A-B/A×100
A is the optical density of the mixture without the sample, while B is the optical density of the mixture with the sample. Dexamethasone was used as a positive control. […]
The subject of assay [9] is KG-1a cells. The experiment in a line: Total cell number by trypan blue exclusion, KG-1a cells. In kind it is cell-based, human. Particulars: IC20 value, 48 h, vs vehicle control. How it is done: as §2
In assay [10] the test system is WT1 protein. The experiment in a line: WT1 protein expression by Western blot in EoL-1 cells. In kind it is cell-based, human. The conditions noted are these: IC20 value, 48 h, vs vehicle control. How it is done: as §1
Assay [11] concerns WT1 protein. The assay can be described thus: WT1 protein expression by Western blot in K562 cells. It is filed as cell-based, human. The conditions noted are these: IC20 value, 48 h, vs vehicle control. As for the experimental part: as §1

Regarding `O=c1c(O)c(-c2ccc(O)cc2O)oc2cc(O)cc(O)c12` [Morin, 2’,3,4’,5,7-pentahydroxyflavonone], the “EC1 (FRAP antioxidant activity)” value in assay [1] was “comparable TEAC and EC1 values with those of ascorbic acid”. In assay [2], the “DPPH• inhibition” value is listed as “significantly more potent than ascorbic acid”. Further, the wound width in [3] was determined as 60.5 ± 3.8%. The “TEAC (ABTS antioxidant activity)” value in [4] was “comparable TEAC and EC1 values with those of ascorbic acid”. In [5], the “suppression of WT1 protein expression in KG-1a cells” value stood at 32.89 ± 8.76%.

Take `O=c1c(O)c(-c2ccc(O)c(O)c2)oc2cc(O)cc(O)c12` [Quercetin, quercetin]: the “EC1 (FRAP antioxidant activity)” value in assay [1] is “comparable TEAC and EC1 values with those of ascorbic acid”. In addition, in assay [6], the “decrease of total cell number, EoL-1 cells” value came to 23.25%. In assay [7], the “decrease of rate of proliferation, KG-1a cells” value is recorded as “significantly decreasing rates of proliferation” and the “rate of cell proliferation, KG-1a cells (in words)” value is listed as “significantly decreasing rate of cell proliferation”. In assay [2], the “DPPH• inhibition” value is recorded as “significantly more potent than ascorbic acid”. In assay [4], the “TEAC (ABTS antioxidant activity)” value is “comparable TEAC and EC1 values with those of ascorbic acid”. Moreover, in assay [8], the NO inhibition entry was “potent inhibitory activities against NO; also recorded: significantly more potent inhibition of IL-2, TNF-α, and NO than dexamethasone”.

Take `Oc1ccc(/C=C/c2cc(O)cc(O)c2)cc1` [Resveratrol, resveratrol]: in [9], the “decrease of total cell number, KG-1a cells” value stood at 39.23%. For the same compound, the “suppression of WT1 protein expression in EoL-1 cells” value in [10] is 76.73%. Also, in assay [10] (listed as resveratrol), the “suppression of WT1 protein expression in EoL-1 cells” value was determined as 76.73 ± 4.08%. Moreover, in [6], the “decrease of total cell number, EoL-1 cells” value amounted to 74.14%. In assay [7], the “decrease of rate of proliferation, KG-1a cells” value was 86.02% and the “rate of cell proliferation, KG-1a cells (in words)” value was “significantly decreasing rate of cell proliferation”. Besides, the “suppression of WT1 protein expression in K562 cells” value in assay [11] amounted to 53.78 ± 4.28%. Further, the wound width in [3] is 32.8 ± 0.7%. In addition, the “suppression of WT1 protein expression in KG-1a cells” value in assay [5] (listed as resveratrol) was 60.27 ± 11.44%.
